The target of this assay is BRAF V600E (Homo sapiens, UniProt P15056, V600E). Put plainly: HiBiT cellular BRAF^V600E degradation assay. Format: cell-based. The settings on record: for DC50: concentration at which 50% of total cellular BRAF^V600E is degraded; for Emax: read-out: HiBit 24 h Emax.
Setting [1] is: A375.10 cells, 24 h, residual protein remaining in the cell.

Like-named read-outs stand apart in the source and are kept apart here.

Sequence of BRAF V600E (P15056 whole entry V600E): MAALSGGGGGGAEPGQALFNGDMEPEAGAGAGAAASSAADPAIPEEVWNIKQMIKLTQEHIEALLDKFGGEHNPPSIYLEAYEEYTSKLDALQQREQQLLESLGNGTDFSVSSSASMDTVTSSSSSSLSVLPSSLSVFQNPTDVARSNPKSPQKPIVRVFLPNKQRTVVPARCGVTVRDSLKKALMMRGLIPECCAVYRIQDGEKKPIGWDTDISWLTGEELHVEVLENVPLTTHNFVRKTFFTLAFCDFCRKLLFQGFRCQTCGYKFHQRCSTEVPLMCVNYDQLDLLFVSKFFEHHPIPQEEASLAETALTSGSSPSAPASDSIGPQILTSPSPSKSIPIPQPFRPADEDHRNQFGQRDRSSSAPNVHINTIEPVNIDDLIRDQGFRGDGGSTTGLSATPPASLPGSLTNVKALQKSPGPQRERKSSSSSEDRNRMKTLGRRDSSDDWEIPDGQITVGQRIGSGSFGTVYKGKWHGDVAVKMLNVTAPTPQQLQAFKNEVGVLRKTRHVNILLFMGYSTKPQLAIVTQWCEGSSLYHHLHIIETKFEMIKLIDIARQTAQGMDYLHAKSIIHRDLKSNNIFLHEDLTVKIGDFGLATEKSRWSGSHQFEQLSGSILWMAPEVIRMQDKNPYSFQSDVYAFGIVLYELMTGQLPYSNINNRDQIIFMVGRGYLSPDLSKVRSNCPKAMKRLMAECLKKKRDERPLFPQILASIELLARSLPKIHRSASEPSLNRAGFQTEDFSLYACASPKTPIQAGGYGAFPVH

`CCN(C)S(=O)(=O)Nc1ccc(F)c(Oc2ccc3ncn([C@H]4CCC5(CCN(C(=O)CN6CCN(c7ccc(C8CCC(=O)NC8=O)cc7F)CC6)CC5)C4)c(=O)c3c2)c1C#N` (stereo partly drawn) [Example 55, 6-[2-cyano-3-[[ethyl(methyl)sulfamoyl]amino]-6-fluorophenoxy]-3-[(3S)-8-[2-[4-[4-(2,6-dioxopiperidin-3-yl)-2-fluorophenyl]piperazin-1-yl]acetyl]-8-azaspiro[4.5]decan-3-yl]-4-oxoquinazoline]: the DC50 (A375.10 cells, 24 h) is 30 nM. Also, under setting [1], the Emax is 14.7%.
For the setting “A375.10 cells, 24 h”, `N#Cc1c(NS(=O)(=O)C2CCCC2)ccc(F)c1Oc1ccc2ncn([C@H]3COC4(CCN(C(=O)CN5CCC(c6ccc(NC7CCC(=O)NC7=O)cc6F)CC5)CC4)C3)c(=O)c2c1` (stereo partly drawn) [Example 56, N-[2-cyano-3-[3-[(3R)-8-[2-[4-[4-[(2,6-dioxopiperidin-3-yl)amino]-2-fluorophenyl]piperidin-1-yl]acetyl]-1-oxa-8-azaspiro[4.5]decan-3-yl]-4-oxoquinazolin-6-yl]oxy-4-fluorophenyl]cyclopentanesulfonamide] yielded a DC50 of 31.6 nM. In addition, the Emax under setting [1] was determined as 11.6%.
Taken in the same sequence, the figures for `CCN(C)S(=O)(=O)Nc1ccc(F)c(Oc2ccc3ncn(C4CCC5(CCN(C(=O)CN6CCC(c7ccc(NC8CCC(=O)NC8=O)cc7F)CC6)CC5)C4)c(=O)c3c2C)c1C#N` (stereo not shown) [Example 57, 6-[2-cyano-3-[[ethyl(methyl)sulfamoyl]amino]-6-fluorophenoxy]-3-[8-[2-[4-[4-[(2,6-dioxopiperidin-3-yl)amino]-2-fluorophenyl]piperidin-1-yl]acetyl]-8-azaspiro[4.5]decan-3-yl]-5-methyl-4-oxoquinazoline] were 20.9 nM and 11.5%.
Taken in the same sequence, the figures for `CCN(C)S(=O)(=O)Nc1ccc(F)c(Oc2ccc3ncn([C@H]4COC5(CCN(C(=O)CN6CCC(c7ccc(NC8CCC(=O)NC8=O)cc7F)C(F)(F)C6)CC5)C4)c(=O)c3c2)c1C#N` (stereo partly drawn) [Example 58, (3R)-3-[6-[2-cyano-3-[[ethyl(methyl)sulfamoyl]amino]-6-fluorophenoxy]-4-oxoquinazolin-3-yl]-8-[2-[4-[4-[(2,6-dioxopiperidin-3-yl)amino]-2-fluorophenyl]-3,3-difluoropiperidin-1-yl]acetyl]-1-oxa-8-azaspiro[4.5]decane] were 45.3 nM and 13.9%.
`CCN(C)S(=O)(=O)Nc1ccc(F)c(Oc2ccc3ncn(C4COC5(CCN(C(=O)CN6CCC(c7ccc(NC8CCC(=O)NC8=O)cc7F)CC6)CC5)C4)c(=O)c3c2C)c1C#N` (stereo not shown) [Example 59, 3-[6-[2-cyano-3-[[ethyl(methyl)sulfamoyl]amino]-6-fluorophenoxy]-5-methyl-4-oxoquinazolin-3-yl]-8-[2-[4-[4-[(2,6-dioxopiperidin-3-yl)amino]-2-fluorophenyl]piperidin-1-yl]acetyl]-1-oxa-8-azaspiro[4.5]decane] registered a DC50 (A375.10 cells, 24 h) of 56 nM. Further, under setting [1], the maximum response (Emax) was found to be 10.4%.
As for `CCN(C)S(=O)(=O)Nc1ccc(F)c(Oc2ccc3ncn([C@H]4COC5(CCN(C(=O)CN6CCN(c7ccc(C8CCC(=O)NC8=O)cc7F)CC6)CC5)C4)c(=O)c3c2)c1C#N` (stereo partly drawn) [Example 60, (3R)-3-[6-[2-cyano-3-[[ethyl(methyl)sulfamoyl]amino]-6-fluorophenoxy]-4-oxoquinazolin-3-yl]-8-[2-[4-[4-(2,6-dioxopiperidin-3-yl)-2-fluorophenyl]piperazin-1-yl]acetyl]-1-oxa-8-azaspiro[4.5]decane], the DC50 (A375.10 cells, 24 h) worked out at 40.5 nM. Further, the Emax under setting [1] is 13%.
On the same counts, the results for `CC(C)S(=O)(=O)Nc1ccc(F)c(Oc2ccc3ncn([C@H]4COC5(CCN(C(=O)CN6CCC(c7ccc(NC8CCC(=O)NC8=O)cc7F)CC6)CC5)C4)c(=O)c3c2)c1C#N` (stereo partly drawn) [Example 61, N-[2-cyano-3-[3-[(3R)-8-[2-[4-[4-[(2,6-dioxopiperidin-3-yl)amino]-2-fluorophenyl]piperidin-1-yl]acetyl]-1-oxa-8-azaspiro[4.5]decan-3-yl]-4-oxoquinazolin-6-yl]oxy-4-fluorophenyl]propane-2-sulfonamide] are 21.1 nM and 8.44%.
Take `CCN(C)S(=O)(=O)Nc1ccc(F)c(Oc2ccc3ncn([C@H]4CCC5(CCN(C(=O)CN6CCC(c7ccc(NC8CCC(=O)NC8=O)c(F)c7F)CC6)CC5)C4)c(=O)c3c2)c1C#N` (stereo partly drawn) [Example 63, 6-[2-cyano-3-[[ethyl(methyl)sulfamoyl]amino]-6-fluorophenoxy]-3-[(3S)-8-[2-[4-[4-[(2,6-dioxopiperidin-3-yl)amino]-2,3-difluorophenyl]piperidin-1-yl]acetyl]-8-azaspiro[4.5]decan-3-yl]-4-oxoquinazoline]: the Emax worked out at 9.52%. It took 20.4 nM to reach half-maximal degradation (A375.10 cells, 24 h) (DC50).
As to `CCN(C)S(=O)(=O)Nc1ccc(F)c(Oc2ccc3ncn([C@H]4COC5(CCN(C(=O)CN6CCC(c7ccc(C8CCC(=O)NC8=O)cc7F)C(F)(F)C6)CC5)C4)c(=O)c3c2)c1C#N` (stereo partly drawn) [Example 65, (3R)-3-[6-[2-cyano-3-[[ethyl(methyl)sulfamoyl]amino]-6-fluorophenoxy]-4-oxoquinazolin-3-yl]-8-[2-[4-[4-(2,6-dioxopiperidin-3-yl)-2-fluorophenyl]-3,3-difluoropiperidin-1-yl]acetyl]-1-oxa-8-azaspiro[4.5]decane], it took 9.48 nM to reach half-maximal degradation (A375.10 cells, 24 h) (DC50). Besides, under setting [1], the Emax is 15.4%.
On the same counts, the results for `CCN(C)S(=O)(=O)Nc1ccc(F)c(Oc2ccc3ncn([C@H]4CCC5(CCN(C(=O)CN6CCC(c7ccc(C8CCC(=O)NC8=O)cc7F)C(F)(F)C6)CC5)C4)c(=O)c3c2)c1C#N` (stereo partly drawn) [Example 66, 6-[2-cyano-3-[[ethyl(methyl)sulfamoyl]amino]-6-fluorophenoxy]-3-[(3S)-8-[2-[4-[4-(2,6-dioxopiperidin-3-yl)-2-fluorophenyl]-3,3-difluoropiperidin-1-yl]acetyl]-8-azaspiro [4.5]decan-3-yl]-4-oxoquinazoline] are 11.3 nM and 10.2%.
For the compound `CCN(C)S(=O)(=O)Nc1ccc(F)c(Oc2ccc3ncn([C@H]4CCC5(CCN(C(=O)CN6CCC(c7cc(F)c(NC8CCC(=O)NC8=O)cc7F)CC6)CC5)C4)c(=O)c3c2)c1C#N` (stereo partly drawn) [Example 67, 6-[2-cyano-3-[[ethyl(methyl)sulfamoyl]amino]-6-fluorophenoxy]-3-[(3S)-8-[2-[4-[4-[(2,6-dioxopiperidin-3-yl)amino]-2,5-difluorophenyl]piperidin-1-yl]acetyl]-8-azaspiro[4.5]decan-3-yl]-4-oxoquinazoline], the Emax stood at 8.05%. Under “A375.10 cells, 24 h”, this compound came in with a DC50 of 5.31 nM.
Regarding `CCN(C)S(=O)(=O)Nc1ccc(F)c(Oc2ccc3ncn(C4COC5(CCN(C(=O)CN6CCC(c7ccc(NC8CCC(=O)NC8=O)cc7F)CC6)CC5)C4)c(=O)c3c2Br)c1C#N` (stereo not shown) [Example 68, 3-[5-bromo-6-[2-cyano-3-[[ethyl(methyl)sulfamoyl]amino]-6-fluorophenoxy]-4-oxoquinazolin-3-yl]-8-[2-[4-[4-[(2,6-dioxopiperidin-3-yl)amino]-2-fluorophenyl]piperidin-1-yl]acetyl]-1-oxa-8-azaspiro[4.5]decane], for the setting “A375.10 cells, 24 h”, it took 8.77 nM to reach half-maximal degradation (DC50). In addition, the Emax under setting [1] amounted to 8.05%.
On the same counts, the results for `CCN(C)S(=O)(=O)Nc1ccc(F)c(Oc2ccc3ncn(C4CCC5(CCN(C(=O)CN6CCC(c7ccc(NC8CCC(=O)NC8=O)cc7F)CC6)CC5)C4)c(=O)c3c2Br)c1C#N` (stereo not shown) [Example 69, 5-bromo-6-[2-cyano-3-[[ethyl(methyl)sulfamoyl]amino]-6-fluorophenoxy]-3-[8-[2-[4-[4-[(2,6-dioxopiperidin-3-yl)amino]-2-fluorophenyl]piperidin-1-yl]acetyl]-8-azaspiro[4.5]decan-3-yl]-4-oxoquinazoline] are 6.63 nM and 9.52%.
For the compound `CCN(C)S(=O)(=O)Nc1ccc(F)c(Oc2ccc3ncn(C4CCC5(CCN(C(=O)CN6CCC(c7ccc(NC8CCC(=O)NC8=O)cc7F)CC6)CC5)C4)c(=O)c3c2Cl)c1C#N` (stereo not shown) [Example 70, 5-chloro-6-[2-cyano-3-[[ethyl(methyl)sulfamoyl]amino]-6-fluorophenoxy]-3-[8-[2-[4-[4-[(2,6-dioxopiperidin-3-yl)amino]-2-fluorophenyl]piperidin-1-yl]acetyl]-8-azaspiro[4.5]decan-3-yl]-4-oxoquinazoline], under “A375.10 cells, 24 h”, the DC50 amounted to 27.7 nM. Moreover, the Emax under setting [1] stood at 10.7%.
Taken in the same sequence, the figures for `CCN(C)S(=O)(=O)Nc1ccc(F)c(Oc2ccc3ncn(C4COC5(CCN(C(=O)CN6CCC(c7ccc(NC8CCC(=O)NC8=O)cc7F)CC6)CC5)C4)c(=O)c3c2Cl)c1C#N` (stereo not shown) [Example 71, 3-[5-chloro-6-[2-cyano-3-[[ethyl(methyl)sulfamoyl]amino]-6-fluorophenoxy]-4-oxoquinazolin-3-yl]-8-[2-[4-[4-[(2,6-dioxopiperidin-3-yl)amino]-2-fluorophenyl]piperidin-1-yl]acetyl]-1-oxa-8-azaspiro[4.5]decane] were 37.6 nM and 10.5%.
Taken in the same sequence, the figures for `CCN(C)S(=O)(=O)Nc1ccc(F)c(Oc2ccc3ncn([C@H]4COC5(CCN(C(=O)CN6CCC(c7ccc(NC8CCC(=O)NC8=O)cc7F)CC6)CC5)C4)c(=O)c3c2F)c1C#N` (stereo partly drawn) [Example 72, (3R)-3-[6-[2-cyano-3-[[ethyl(methyl)sulfamoyl]amino]-6-fluorophenoxy]-5-fluoro-4-oxoquinazolin-3-yl]-8-[2-[4-[4-[(2,6-dioxopiperidin-3-yl)amino]-2-fluorophenyl]piperidin-1-yl]acetyl]-1-oxa-8-azaspiro[4.5]decane] were 39.9 nM and 8.63%.
`CCN(C)S(=O)(=O)Nc1ccc(F)c(Oc2ccc3ncn([C@@H]4COC5(CCN(C(=O)CN6CCC(c7ccc(NC8CCC(=O)NC8=O)cc7F)CC6)CC5)C4)c(=O)c3c2Br)c1C#N` (stereo partly drawn) [Example 74, (3S)-3-[5-bromo-6-[2-cyano-3-[[ethyl(methyl)sulfamoyl]amino]-6-fluorophenoxy]-4-oxoquinazolin-3-yl]-8-[2-[4-[4-[(2,6-dioxopiperidin-3-yl)amino]-2-fluorophenyl]piperidin-1-yl]acetyl]-1-oxa-8-azaspiro[4.5]decane]: it took 31.5 nM to reach half-maximal degradation (A375.10 cells, 24 h) (DC50). Moreover, the Emax under setting [1] came out at 11.6%.

The record behind these values is patent US12486253B2, “Therapeutics for the degradation of mutant BRAF” (C4 THERAPEUTICS, INC., priority 2021, dated 2025).
